Data reported in patent US8975246B2, “Bile acid or bile salt fatty acid conjugates” (Galmed Research and Development Ltd., priority 2001, dated 2015).

Columns and labels:
Assay type in all cases: in vivo
[1] = system: Golden Syrian Male Hamsters; assay: Fatty liver histologic score, hamsters; conditions: Lithogenic diet 1 + BAFAC 150 mg/kg/day, 10 W
Experimental: (§1) The presence of fatty liver was evaluated by a pathologist unaware of the treatments, scoring coded slides in a blinded manner.
(§2) The scoring system was as follows:
Golden Syrian Male Hamsters (Anilab, Rehovot, Israel) […] weighing 90-110 gm were used. They were fed a lithogenic diet (No 1). Half of the animals were given in addition 150 mg/kg/day of 3β-arachidylamido-7α,12α-dihydroxy-5β-cholan-24-oic acid. The compound was given suspended in saline, by intragastric gavage. Control animals were similarly given saline only. After 10 weeks the animals were anesthetized and sacrificed. The liver and other organs were removed and placed in formaline for histologic examination.

human patients [2] = assay: Human study: change in insulin; conditions: for Change from Baseline in Insulin, Max / Change from Baseline in Insulin, Mean / Change from Baseline in Insulin, Median / Change from Baseline in Insulin, Min: ITT
Experimental: (§3) The effects of BAFACs on disorders associated with Fatty liver, insulin resistance and altered glucose metabolism were tested on 60 human patients. Experiments were subdivided to 2 dosage regimens: Aramchol 300 mg daily (high dose) and 100 mg daily (low dose) respectively for a total period time of 3 months. The Aramchol:placebo ratio is of 2:1 for the low dose arm, and 1:1 for the high dose arms.
(§4) The study period included a 3 month treatment period with Aramchol low dose, or Aramchol high dose, or placebo, and a one month follow-up period. Aramchol was given daily orally. During the treatment period, all patients attended periodic […] (at first month) and subsequently monthly study-center visits in order to assess safety and efficacy of the treatment.
The results are shown using two known in the art principle statistical evaluation on, Intention-To-Treat (ITT) and Per Protocol (PP) populations. The ITT principle asserts that the effect of a treatment policy can be best assessed by evaluation on the basis of the intention to treat a subject (i.e. the planned treatment regimen) rather than the actual treatment given. It has the consequence that subjects allocated to a treatment group should be followed up, assessed and analyzed as members of that group irrespective of their compliance to the planned course of treatment. […] Compliance covers such considerations as exposure to treatment, availability of measurements and absence of major protocol violations.

[3] = system: Golden Syrian Male Hamsters; assay: Fasting blood glucose, hamsters on fatty liver diet (NIDDM model); conditions: BAFAC 150 mg/kg/day by gavage, 3 weeks, vs saline
Experimental: (§5) The effects of BAFACs on fasting blood glucose were tested in 3 animal species: Hamsters, Rats and Mice. The animals were kept on regular or high fat diets (as specified). In each group half of the animals received a daily BAFAC dose (150 mg/kg) dispersed in 0.5 ml of saline by gavage. The other half received similarly, by gavage, an equal volume of saline only. All animals were kept on a 12 hr day/night cycle at 22° C. throughout the experiment. They had access to water ad libidum.
Golden Syrian male hamsters 4 weeks old (90-100 gm) were fed a fatty liver diet consisting of cholesterol (1%), palmitic acid (1.2%), butter (6%), lard (10%), and corn oil (2%) added (w/w) to their regular diet. Blood glucose was measured at sacrifice in the fasting state after 3 weeks of the trial. There were 5 control and 5 test animals.
(§6) The hamsters and rats on the high fat diets developed fatty liver (confirmed by chemical measurement of liver fat), a high fasting blood glucose, and represented models of NIDDM.
ICR male mice, 4 weeks old (approx. 20 gm) were fed a regular diet. Streptozotocin 200 mg/kg was injected i.p. on the first day of the experiment. (This induced damage to the islet cells of the pancreas and simulated IDDM). Fasting blood glucose was obtained from sacrificed animals after 16 days of the trial. There were 3 groups of 7 animals each. Controls—regular diet only. […]

Wistar male rats = assay: Fasting blood glucose, rats on regular or high fat diet; conditions: 4 weeks
Experimental: as §5
Wistar male rats 4 weeks old (100-120 gm) were fed a regular chow diet or a high fat diet enriched with lard (10%), cholesterol (2.5%) and cholic acid (0.5%) (w/w). Blood and organ samples were obtained after sacrifice (in the fasting state) after 4 weeks of the trial. Half of the animals in each group were given BAFAC 150 mg/kg; the others were given an equal volume of saline. There were 7 rats in the control and test groups on a regular diet and 6 rats in each group given a high fat diet.
as §6
ICR male mice, 4 weeks old (approx. 20 gm) were fed a regular diet. Streptozotocin 200 mg/kg was injected i.p. on the first day of the experiment. (This induced damage to the islet cells of the pancreas and simulated IDDM). […]

human patients [4] = assay: Human study: safety; conditions: Aramchol at 300 and 100 mg/d oral, 3 months, vs placebo
Experimental: as §3, §4
No changes in adverse events or in vital signs were observed between the groups.

C57 male inbred mice = assay: Fatty liver histologic score, mice on Western diet; conditions: Western diet + BAFAC 150 mg/kg/day, 4 W
Experimental: as §1, §2
C57 male inbred mice (Jackson Lab., Maine, USA) 4-6 weeks old weighing 20-25 gm were used. They were fed a “Western” diet (George et. al. Circulation 2000, 102:1822-27) containing cholesterol 1.5 gm/kg and Fat 42%, Carbohydrates 43%, and Protein 15% (as % of calories). Half were given in addition 150 mg/kg/day of 3β-arachidylamido-7α,12α-dihydroxy-5β-cholan-24-oic acid suspended in saline by intragastric gavage. The other half were similarly given saline only. After 4 weeks the animals were anesthetized and sacrificed. Liver and other organs were removed and placed in formaline prior to histologic examination

[5] = score 0 (no fatty liver) to 4 (severe, >50% of liver surface)

CCCCCCCCCCCCCCCCCCCC(=O)N[C@H]1CC[C@@]2(C)[C@@H](C1)C[C@@H](O)[C@@H]1[C@@H]2C[C@H](O)[C@]2(C)[C@@H]([C@H](C)CCC(=O)O)CC[C@@H]12 [Aramchol, 3β-arachidylamido-7α,12α-dihydroxy-5β-cholan-24-oic acid]
Fatty Liver Scores: number of animals with score 0 ([1]; n 7, 0 - No fatty liver): 6 | Fatty Liver Scores: number of animals with score 2 ([1]; n 7, 2 - Mild fatty liver): 1 | Fatty Liver Score, mean [1, 5]: 0.28 | Change from Baseline in Insulin, Max (human patients [2]; Aramchol 100 mg/d oral): 38.9 | Change from Baseline in Insulin, Mean (human patients [2]; Aramchol 100 mg/d oral): 5.6 | Change from Baseline in Insulin, Median (human patients [2]; Aramchol 100 mg/d oral): 2.5 | Change from Baseline in Insulin, Min (human patients [2]; Aramchol 100 mg/d oral): −7.4 | Change from Baseline in Insulin, Max (human patients [2]; Aramchol 300 mg/d oral): 9.1 | Change from Baseline in Insulin, Mean (human patients [2]; Aramchol 300 mg/d oral): −21.1 | Change from Baseline in Insulin, Median (human patients [2]; Aramchol 300 mg/d oral): 0.9 | Change from Baseline in Insulin, Min (human patients [2]; Aramchol 300 mg/d oral): −367.5 | basal insulin levels (in words) (human patients [2]; tested subjects, Table 8): reduces basal insulin levels | fasting blood glucose [3]: markedly reduced | fasting blood glucose (Wistar male rats; high fat diet (fatty liver), BAFAC 150 mg/kg by gavage, vs saline): markedly reduced | blood glucose (Wistar male rats; normal (regular) diet, no hyperglycemia or fatty liver, BAFAC 150 mg/kg): no effect | Safety (adverse events, vital signs) (human patients [4]): not associated with any safety concerns | Fatty Liver Scores: number of animals with score 0 (C57 male inbred mice; n 14, 0 - No fatty liver): 12 | Fatty Liver Scores: number of animals with score 1 (C57 male inbred mice; n 14, 1 - Minimal fatty liver): 1 | Fatty Liver Scores: number of animals with score 4 (C57 male inbred mice; n 14, 4 - Severe fatty liver): 1 | Fatty Liver Score, mean (C57 male inbred mice; [5]): 0.35
